{
  "source": "patent US9649324B2",
  "about": "“Use of tylvalosin as antiviral agent” (ECO ANIMAL HEALTH LIMITED, priority 2006, dated 2017)",
  "key": {"HRT-18 cells": {"tested_on": "HRT-18 cells", "test": "Intracellular accumulation of macrolides in HRT-18 cells", "format": "in vitro ADME, human", "details": "for average intracellular concentration / intracellular:extracellular ratio: 10 μg/mL antibiotic", "protocol": "HRT-18 cells, in 6 cm tissue cultures dishes, were incubated in the presence of 0.5, 5 or 50 μg/mL tylvalosin. After 4 h, two dishes for each tylvalosin concentration and two dishes without antibiotic were removed from the incubator. A sample of medium (about 1 mL) was removed, placed in a labelled Eppendorf tube and stored at −20° C. The rest of the medium was then removed. Each of the cell monolayers was washed twice in PBS, using approximately 5 mL for each wash. The plunger from a 2 mL plastic syringe was used to gently scrape off the cells. PBS (500 μL) was added to the dish and the cells gently removed into this medium, using a micropipette. The sample was then placed in an Eppendorf tube and centrifuged at 8000×g in a bench centrifuge (Biofuge pico, Heraeus instruments) for 13 sec. An obvious cell pellet formed. The supernatant was removed using a micropipette and the cell material was stored at −20° C. in a labelled Eppendorf tube. After approximately 24 h the remaining tissue culture dishes were removed from the incubator and treated as described above for the 4 h samples. All the samples, including the 4 h samples, were then stored at −70° C.\nHRT-18 cells were prepared as described above and used at passage 42. Stock solutions of antibiotics (either tylvalosin, tylosin or tilmicosin) were diluted in growth media and 10 μg/mL each antibiotic was added to the confluent cell monolayers. The cells were incubated at 37° C. in a 5% CO2 atmosphere for either 4 h or 24 h. The media and cells were harvested and tested for antibiotic, as described above.\n(§1) All the supernatant and cell samples were transported frozen (at approximately −20° C.) to York Bioanalytical Solutions (York, England) for analysis. Briefly, 0.25 g of buffer (RPMI medium containing 10% FCS) was weighed into a polypropylene tube. A 50 μL volume of the appropriate working solution was added to the quality control (QC) samples. Methanol (50 μL) was added to each blank sample used for preparation of calibration standards, recovery samples and reagent blanks. A 2.5 mL volume of 0.1 M phosphate buffer was added to each sample, vortex mixed for approximately 1 min and then centrifuged at 3220×g for 10 min at 4° C.\n(§2) For the liquid-liquid clean-up phase, an aliquot (100 μL) of the supernatant was transferred to a polypropylene tube. The pH was adjusted to pH 8-8.5 by the addition of 0.1 M NaOH, and vortex mixed. Ethyl acetate (5 mL) was added and after capping, the whole mixture was shaken for 10 min and then centrifuged at 3220×g for 10 min at 4° C.\n(§3) Ammonium acetate (20 mM; pH native)—formic acid, 1000:3, v/v (100 μL) was added to each well in a 2 mL polypropylene collection plate. An aliquot of the ethyl acetate mixture (100 μL) was transferred to the polypropylene collection plate and evaporated under nitrogen (40° C.) until the ethyl acetate was fully evaporated whilst the ammonium acetate remained. Methanol (100 μL) was added to each well, excluding the calibration standards.\n(§4) To each well containing a calibration standard, 100 μL of the appropriate calibration working solution was added. Samples were then vortex mixed for at least 10 min and submitted for liquid chromatography with tandem mass spectrometric analysis. The method stated was applicable to the samples of media (and the calibration standards and quality control samples).\n(§5) For the cells, the sample tubes were weighed, and 100 μL of acetonitrile was added. The samples were vortex mixed for 10 sec, then centrifuged at 10285×g at 4° C. for 5 min. The sample was transferred to a polypropylene tube. The original sample tube was washed with 0.1 M phosphate buffer (1 mL). This was transferred to the polypropylene tube. A second wash of 1 mL was made, then a final wash of 0.5 mL. The polypropylene tube was now at the same stage as the end of the liquid extraction, but with the cells present rather than media. This was then taken through the sample preparation as described above. […]"}, "pig white blood cells": {"tested_on": "pig white blood cells", "test": "Intracellular accumulation in pig white blood cells", "format": "in vitro ADME", "protocol": "Pig blood was collected in Heparin-coated BD vacutainers (6). 20 mL of blood and 30 mL of phosphate buffered saline (PBS) were mixed in a 50 mL conical centrifuge tube. This was repeated in order to obtain 3 such tubes. The mixtures were centrifuged for 10 min at 2050×g. The white blood cells, together with some red blood cells below, were harvested into a 50 mL conical centrifuge tube. PBS was added to about 50 mL. A 63% solution of Percoll was made as follows: 6.3 mL Percoll (Sigma), 1.0 mL 1.5 M NaCl, 2.7 mL H2O. 10 mL of 63% Percoll was added to each of two 50 mL conical centrifuge tubes. 25 mL of the resuspended white blood cells were carefully layered on top of the each of the Percoll solutions. A sharp interface was produced. The material was centrifuged at 3000×g for 10 min. […] The white blood cells were harvested in PBS (50 mL) and centrifuged at 500×g for 10 min. The cell pellet was resuspended in medium (Glasgow minimum essential medium containing penicillin and streptomycin). A viable cell count was made using trypan blue. The same method used for isolation of pig WBCs was used for the chicken WBCs, with the exception that heparin (100 I.U./mL) was prepared and mixed with an equal volume of chicken whole blood.\nCells were incubated with 10 mg/mL of each antibiotic. All tubes were placed on a rotary mixing machine, at 37° C. Supernatant and cell samples were harvested at the times described in the figure legends. Duplicate samples were used for each antibiotic for each time point.\nas §1, §2, §3, §4, §5"}, "[1]": {"tested_on": "human Udorn strain of influenza", "test": "Influenza infection of MDCK cells, immunofluorescence (Example 4), strain Udorn", "format": "cell-based", "details": "1 μg/ml, 4 h pretreatment, moi 10, fixed 4 h post infection"}, "[2]": {"tested_on": "PR8 strain of influenza A virus", "test": "Influenza infection of MDCK cells, immunofluorescence (Example 4), strain PR8", "format": "cell-based, human influenza", "details": "1 μg/ml, 4 h pretreatment, moi 10, fixed 4 h post infection"}, "PRRSV": {"tested_on": "PRRSV", "test": "PRRSV infection and cell spread in MA104 cells, drug added after infection (Example 5)", "format": "cell-based", "details": "moi 0.01, 1 μg/ml added 8 hours post infection", "protocol": "MA104 cells were infected with PRRSV at moi of 0.01 (should infect roughly 10% of the cells in the first round). 8 hours post infection tylvalosin, tylosin and tilmicosin were added at 1 μg/ml. Cells were harvested 28 hours post infection and infection was assessed by indirect immunofluorescence.\nAs stated above a moi of 0.01 should infect roughly 10% of the cells. However, after 28 hours the virus will have completed one round of infection and will have infected neighbouring cells. […] This detection increases 16-20 hours post infection and by 24 hours low levels of expression in neighbouring cells can be detected.\nThe addition of drugs 8 hours post infection should have no effect on the primary infection (i.e. no effect on entry of input virus). It could, however, effect viral replication directly or indirectly through other mechanisms and could also effect virus entry during the secondary round of infection where virus produced by the initially infected cells infects neighbouring cells."}},
  "data": [
    {"smiles": "CCC1OC(=O)CC(OC(C)=O)C(C)C(OC2OC(C)C(OC3CC(C)(O)C(OC(=O)CC(C)C)C(C)O3)C(N(C)C)C2O)C(CC=O)CC(C)C(=O)C=CC(C)=CC1COC1OC(C)C(O)C(OC)C1OC", "note": "(centres unmarked) [tylvalosin, 3-O acetyl-4″-O-isovaleryltylosin]", "values": [
      {"measurement": "average intracellular concentration", "setting": "HRT-18 cells; HRT-18 cells, 4 h", "result": 61.8, "unit": "μg/mg cells"},
      {"measurement": "intracellular:extracellular ratio", "setting": "HRT-18 cells; HRT-18 cells, 4 h", "result": 5.13, "unit": "fold"},
      {"measurement": "average intracellular concentration", "setting": "HRT-18 cells; HRT-18 cells, 24 h", "result": 57.6, "unit": "μg/mg cells"},
      {"measurement": "intracellular:extracellular ratio", "setting": "HRT-18 cells; HRT-18 cells, 24 h", "result": 5.34, "unit": "fold"},
      {"measurement": "concentration of tylvalosin accumulated in the cells", "setting": "HRT-18 cells; HRT-18 cells, 0.5, 5 or 50 μg/mL tylvalosin, within 4 h", "result": "at least 585 μg"},
      {"measurement": "cell:medium concentration ratio", "setting": "HRT-18 cells; HRT-18 cells, 24 h incubation, compared with 4 h", "result": "lower"},
      {"measurement": "average intracellular concentration", "setting": "pig white blood cells; 10 min", "result": 57.4, "unit": "μg/mg cells"},
      {"measurement": "average intracellular:extracellular ratio (IC:EC)", "setting": "pig white blood cells; 10 min", "result": 8.68},
      {"measurement": "average intracellular:extracellular ratio (IC:EC)", "setting": "pig white blood cells; 10 min, listed as Tylvalosin", "result": 9},
      {"measurement": "intracellular concentration", "setting": "pig white blood cells; 20 min", "result": 61.45, "unit": "μg/mg cells"},
      {"measurement": "inhibition of infection of MDCK cells", "setting": "[1]", "result": 76, "unit": "%"},
      {"measurement": "inhibition of infection of MDCK cells", "setting": "[2]", "result": "completely inhibited"},
      {"measurement": "spread of the virus to neighbouring cells", "setting": "PRRSV", "result": "prevented spread"},
      {"measurement": "virus positive cells", "setting": "PRRSV; harvested 28 hours post infection", "result": 1, "unit": "%"}
    ]}
  ]
}
